Experiment: xn = mol fraction of the nth substance listed
Conditions: 101 kPa

CCCC[n+]1ccn(C)c1.CS(=O)(=O)[O-] + O
Conditions | electrical conductivity [S/m] | viscosity [mPa·s]
298.15 K, x1 = 0.004 | 1.17 | –
298.15 K, x1 = 0.008 | 2.08 | –
298.15 K, x1 = 0.019 | 3.25 | –
298.15 K, x2 = 0.5596 | – | 50
298.15 K, x2 = 0.785 | 1.15 | –
298.15 K, x2 = 0.8016 | – | 13.45
298.15 K, x2 = 0.8521 | – | 8.87
298.15 K, x2 = 0.861 | 2.33 | –
298.15 K, x2 = 0.892 | 2.95 | –
298.15 K, x2 = 0.9004 | – | 5.45
298.15 K, x2 = 0.9254 | – | 4.05
298.15 K, x2 = 0.929 | 3.58 | –
298.15 K, x2 = 0.9503 | – | 2.73
298.15 K, x2 = 0.968 | 3.96 | –
299.15 K, x1 = 0.004 | 1.2 | –
299.15 K, x1 = 0.019 | 3.33 | –
299.15 K, x2 = 0.704 | 0.601 | –
299.15 K, x2 = 0.785 | 1.18 | –
299.15 K, x2 = 0.796 | 1.29 | –
299.15 K, x2 = 0.861 | 2.39 | –
299.15 K, x2 = 0.929 | 3.67 | –
299.15 K, x2 = 0.968 | 4.04 | –
300.15 K, x1 = 0.008 | 2.17 | –
300.15 K, x1 = 0.019 | 3.4 | –
300.15 K, x2 = 0.704 | 0.634 | –
300.15 K, x2 = 0.785 | 1.23 | –
300.15 K, x2 = 0.796 | 1.3 | –
300.15 K, x2 = 0.861 | 2.5 | –
300.15 K, x2 = 0.892 | 3.02 | –
300.15 K, x2 = 0.929 | 3.75 | –
300.15 K, x2 = 0.951 | 4.23 | –
300.15 K, x2 = 0.968 | 4.13 | –
301.15 K, x1 = 0.004 | 1.27 | –
301.15 K, x1 = 0.008 | 2.23 | –
301.15 K, x1 = 0.019 | 3.5 | –
301.15 K, x2 = 0.704 | 0.661 | –
301.15 K, x2 = 0.785 | 1.28 | –
301.15 K, x2 = 0.796 | 1.36 | –
301.15 K, x2 = 0.892 | 3.11 | –
301.15 K, x2 = 0.929 | 3.87 | –
301.15 K, x2 = 0.951 | 4.33 | –
301.15 K, x2 = 0.968 | 4.05 | –
302.15 K, x1 = 0.004 | 1.29 | –
302.15 K, x1 = 0.008 | 2.26 | –
302.15 K, x2 = 0.704 | 0.663 | –
302.15 K, x2 = 0.796 | 1.41 | –
302.15 K, x2 = 0.892 | 3.2 | –
302.15 K, x2 = 0.929 | 3.97 | –
302.15 K, x2 = 0.951 | 4.43 | –
302.15 K, x2 = 0.968 | 4.28 | –
303.15 K, x1 = 0.004 | 1.31 | –
303.15 K, x1 = 0.008 | 2.31 | –
303.15 K, x1 = 0.019 | 3.66 | –
303.15 K, x2 = 0.785 | 1.39 | –
303.15 K, x2 = 0.796 | 1.47 | –
303.15 K, x2 = 0.892 | 3.3 | –
303.15 K, x2 = 0.929 | 4.16 | –
303.15 K, x2 = 0.951 | 4.54 | –
303.15 K, x2 = 0.968 | 4.41 | –
304.15 K, x1 = 0.004 | 1.34 | –
304.15 K, x1 = 0.008 | 2.37 | –
304.15 K, x1 = 0.019 | 3.73 | –
304.15 K, x2 = 0.704 | 0.753 | –
304.15 K, x2 = 0.785 | 1.44 | –
304.15 K, x2 = 0.861 | 2.79 | –
304.15 K, x2 = 0.892 | 3.4 | –
304.15 K, x2 = 0.929 | 4.22 | –
304.15 K, x2 = 0.951 | 4.61 | –
304.15 K, x2 = 0.968 | 4.55 | –
305.15 K, x1 = 0.008 | 2.4 | –
305.15 K, x1 = 0.019 | 3.77 | –
305.15 K, x2 = 0.785 | 1.46 | –
305.15 K, x2 = 0.796 | 1.56 | –
305.15 K, x2 = 0.892 | 3.51 | –
305.15 K, x2 = 0.929 | 4.35 | –
305.15 K, x2 = 0.951 | 4.74 | –
305.15 K, x2 = 0.968 | 4.51 | –
306.15 K, x1 = 0.008 | 2.45 | –
306.15 K, x1 = 0.019 | 3.85 | –
306.15 K, x2 = 0.704 | 0.815 | –
306.15 K, x2 = 0.785 | 1.49 | –
306.15 K, x2 = 0.796 | 1.62 | –
306.15 K, x2 = 0.892 | 3.6 | –
306.15 K, x2 = 0.929 | 4.49 | –
306.15 K, x2 = 0.951 | 5.02 | –
306.15 K, x2 = 0.968 | 4.73 | –
307.15 K, x1 = 0.004 | 1.42 | –
307.15 K, x1 = 0.019 | 4.02 | –
307.15 K, x2 = 0.704 | 0.851 | –
307.15 K, x2 = 0.796 | 1.64 | –
307.15 K, x2 = 0.861 | 3.04 | –
307.15 K, x2 = 0.892 | 3.74 | –
307.15 K, x2 = 0.929 | 4.59 | –
307.15 K, x2 = 0.951 | 4.98 | –
307.15 K, x2 = 0.968 | 4.78 | –
308.15 K, x1 = 0.004 | 1.44 | –
308.15 K, x1 = 0.008 | 2.62 | –
308.15 K, x2 = 0.704 | 0.882 | –
308.15 K, x2 = 0.785 | 1.64 | –
308.15 K, x2 = 0.796 | 1.69 | –
308.15 K, x2 = 0.892 | 3.83 | –
308.15 K, x2 = 0.929 | 4.72 | –
308.15 K, x2 = 0.951 | 5.05 | –
309.15 K, x1 = 0.004 | 1.47 | –
309.15 K, x1 = 0.008 | 2.62 | –
309.15 K, x1 = 0.019 | 4.14 | –
309.15 K, x2 = 0.704 | 0.921 | –
309.15 K, x2 = 0.861 | 3.17 | –
309.15 K, x2 = 0.892 | 3.93 | –
309.15 K, x2 = 0.929 | 4.79 | –
309.15 K, x2 = 0.951 | 5.22 | –
310.15 K, x1 = 0.004 | 1.5 | –
310.15 K, x1 = 0.008 | 2.66 | –
310.15 K, x2 = 0.704 | 0.956 | –
310.15 K, x2 = 0.785 | 1.74 | –
310.15 K, x2 = 0.796 | 1.8 | –
310.15 K, x2 = 0.929 | 4.93 | –
310.15 K, x2 = 0.951 | 5.35 | –
311.15 K, x1 = 0.004 | 1.54 | –
311.15 K, x1 = 0.008 | 2.73 | –
311.15 K, x1 = 0.019 | 4.21 | –
311.15 K, x2 = 0.704 | 0.987 | –
311.15 K, x2 = 0.785 | 1.79 | –
311.15 K, x2 = 0.796 | 1.86 | –
311.15 K, x2 = 0.892 | 4.16 | –
311.15 K, x2 = 0.929 | 5.04 | –
311.15 K, x2 = 0.951 | 5.47 | –
311.15 K, x2 = 0.968 | 5.2 | –
312.15 K, x1 = 0.004 | 1.57 | –
312.15 K, x1 = 0.008 | 2.75 | –
312.15 K, x1 = 0.019 | 4.39 | –
312.15 K, x2 = 0.704 | 1.06 | –
312.15 K, x2 = 0.785 | 1.86 | –
312.15 K, x2 = 0.861 | 3.44 | –
312.15 K, x2 = 0.892 | 4.28 | –
312.15 K, x2 = 0.929 | 5.15 | –
312.15 K, x2 = 0.951 | 5.65 | –
312.15 K, x2 = 0.968 | 5.28 | –
313.15 K, x1 = 0.004 | 1.58 | –
313.15 K, x1 = 0.008 | 2.8 | –
313.15 K, x1 = 0.019 | 4.46 | –
